Data on 18 molecules can be found in patent US8729074B2, “Inhibitors of PI3 kinase” (Amgen Inc., priority 2009, dated 2014).

In one assay the target is mTOR (Homo sapiens (Human), UniProt P42345). Description: In vitro mTOR Lanthascreen assay. The format is biochemical. The settings on record: average if run more than once. The text has this:
The Invitrogen (Carlsbad, Calif.) mammalian target of rapamycin (mTOR) Lanthascreen assay can be used to quantitate mTOR kinase activity in an in vitro setting. Active mTOR phosphorylates eukaryotic translation initiation factor 4E binding protein 1 (4E-BP1) on residue threonine 46. This phosphorylation event can be detected with a phospho-specific terbium (Tb) labeled Ab, in turn bringing the Tb label in close proximity to the GFP tagged 4E-BP 1 and allowing for time-resolved fluorescence resonance energy transfer (TR-FRET), which correlates 4E-BP1 phosphorylation levels with mTOR kinase activity.
Enzyme reaction buffer can be prepared in deionized water containing 50 mM HEPES (pH 7.5), 0.01% Polysorbate 20, 1 mM EGTA, and 10 mM MnCl2.
Dilutions of the compound to be tested can be prepared in 96-well polypropylene plates (Fisher Scientific, Waltham, Mass.). One row represents a 10-point dose of compound diluted 1:3 in enzyme reaction buffer and 20% dimethyl sulfoxide (DMSO). The top concentration for all compounds is 36 μM. Wells 6 and 12 can serve as the no compound (DMSO only) and high compound controls.
An mTOR substrate solution can prepared in enzyme reaction buffer containing 1600 nM green fluorescent protein tagged eukaryotic translation initiation factor 4E binding protein 1 (GFP-4E-BP1) (Invitrogen, Carlsbad, Calif.) and 28 uM adenosine triphosphate (ATP) (Calbiochem, Gibbstown, N.J.).
mTOR enzyme (Invitrogen, Carlsbad, Calif.) can be diluted in enzyme reaction buffer to a working concentration of 100 ng/mL.
The enzyme assay can be run in 384 well low volume assay plates (Corning, Corning, N.Y.). 2.5 uL of substrate solution containing GFP-4E-BP1 and ATP can be added to appropriate wells in the assay plate followed by 2.5 μL of compound dilutions. 5 μL of appropriately diluted mTOR enzyme can be added and the reaction allowed to proceed for 1 hour at room temperature. Final reagent concentrations in the enzyme assay are 50 ng/mL mTOR, 400 nM GFP-4E-BP1, and 7 μM ATP.
The enzyme assay can be terminated upon the addition of 10 μL of 20 mM EDTA and 4 nM Tb-labeled anti-phospho-4E-BP1 [T46] antibody (Invitrogen, Carlsbad, Calif.). The assay plate can then be incubated at room temperature for 1 hour and results read on a Tecan Safire II plate reader (Tecan, Männedorf, Switzerland).
Background: Time-resolved FRET reads energy transfer from a long-lived donor to a nearby acceptor.

The subject of assay [1] is phosphorylation of Akt at Serine 473 in U87 MG cells. Description: pAkt AlphaScreen (U87 cell). The format is cell-based. The settings on record: Homo sapiens, U-87 MG, 2 h; pAkt Ser473, U87 MG cells, compound two hours; average if run more than once. The procedure:
pAkt AlphaScreen (U87 Cell)
The pAkt AlphaScreen® assay (PerkinElmer, Waltham, Mass.) determines whether there is phosphorylation of Akt at Serine 473 by recruitment of a phosphospecific antibody. This assay was performed using U87 MG cells. The U87 growth media consists of MEM (Gibco, Carlsbad, Calif.) supplemented with 10% FBS (Gibco), 1× Non-Essential Amino Acids (Gibco) and 1× Penicillin/Streptomycin/Glutamine (Gibco). The cells were maintained weekly using 0.05% Trypsin (Gibco) and replated in 150 mm TC—Treated Culture Dishes (Corning, Corning, N.Y.).
The first day of the assay, the adherent cells were trypsinized, media was added to the loose cells and cells were mixed to a homogenous mixture. 0.5 ml of the homogenous mixture was counted on the Beckman Coulter® Vi-CELL™ XR (Fullerton, Calif.). 50 frames of cells were counted and the number of viable cells was determined. The cells were then diluted to 0.25 million cells per ml, and centrifuged at 200 rcf for 5 minutes. The media was removed and the cells were reconstituted in fresh media for plating. The cells were plated at 20 μl per well on the PerkinElmer® Flexprop PLUS in Low Volume 384 Well White Tissue Culture Plates (Corning) with a final cell density of 5K cells per well. The plates were incubated overnight at 37° Celsius, 5% CO2.
On the second day, the compound plates were prepared, the cells were treated with compound and the pAkt reaction mix was added to the cell lysate. 384 well compound plates were prepared containing 1 μl of compound per well starting at 5 mM and diluted 1:2 across the row, resulting in a 22 well serial dilution. 39 μl of growth media was added to the compound plate in rows 1-22 using the PerkinElmer® Flexprop PLUS resulting in a DMSO concentration of 2.5%. The cell plates and diluted compound plates were put onto the VELOCITY11™ VPREP™ 384 ST where the compound plate was mixed and 5 μl of serially diluted compound or controls was added to the cell plate. The final concentration of the compounds was 25 μM serially diluted to 11.9 pM in 0.5% DMSO. The cell plates were then incubated with compound for two hours at 37° Celsius, 5% CO2. After two hours, the media in the cell plates was aspirated using the BioTek® ELx405HT plate washer (Winooski, Vt.) removing the majority of media and compound without disturbing the adherent U87 cells. The following assay reagents are components of the SureFire® Akt (Ser 473) Phosphorylation 50K Point Kit (TGR BioSciences, Adelaide, Australia) and an IgG Detection Kit (PerkinElmer, Waltham, Mass.). 5 μl of 1× Lysis Buffer was added to each well using the PerkinElmer® Flexprop PLUS. The plates were then incubated at room temperature on a shaker for ten minutes. The AlphaScreen® reaction was prepared under low light conditions (subdued or green light) including p-Akt (Ser 473) Reaction Buffer, Dilution Buffer, Activation Buffer, Acceptor Beads and Donor Beads at a ratio of 40:20:10:1:1 respectively. The AlphaScreen® reaction was added to the cell lysate at 6 μl per well using the PerkinElmer® Flexprop PLUS. The plates were placed in a humid environment to reduce edge effects and incubated overnight at room temperature with restricted air flow in the dark.
On the final day of the experiment, the plates were read on the PerkinElmer® EnVision™ 2103 Multilable Reader using the standard AlphaScreen® readout. The POC is calculated and the data is analyzed to report the IC50 IP for pAkt at Serine 473.
Activity data for the compounds tested in the PI3K cell based Akt assay is provided in Table 1 under the column heading U87
Background: Bead proximity is the source of the signal in Alpha formats.

pIC50: −log10 of the molar value.

Sequence of mTOR (P42345 1360-2549): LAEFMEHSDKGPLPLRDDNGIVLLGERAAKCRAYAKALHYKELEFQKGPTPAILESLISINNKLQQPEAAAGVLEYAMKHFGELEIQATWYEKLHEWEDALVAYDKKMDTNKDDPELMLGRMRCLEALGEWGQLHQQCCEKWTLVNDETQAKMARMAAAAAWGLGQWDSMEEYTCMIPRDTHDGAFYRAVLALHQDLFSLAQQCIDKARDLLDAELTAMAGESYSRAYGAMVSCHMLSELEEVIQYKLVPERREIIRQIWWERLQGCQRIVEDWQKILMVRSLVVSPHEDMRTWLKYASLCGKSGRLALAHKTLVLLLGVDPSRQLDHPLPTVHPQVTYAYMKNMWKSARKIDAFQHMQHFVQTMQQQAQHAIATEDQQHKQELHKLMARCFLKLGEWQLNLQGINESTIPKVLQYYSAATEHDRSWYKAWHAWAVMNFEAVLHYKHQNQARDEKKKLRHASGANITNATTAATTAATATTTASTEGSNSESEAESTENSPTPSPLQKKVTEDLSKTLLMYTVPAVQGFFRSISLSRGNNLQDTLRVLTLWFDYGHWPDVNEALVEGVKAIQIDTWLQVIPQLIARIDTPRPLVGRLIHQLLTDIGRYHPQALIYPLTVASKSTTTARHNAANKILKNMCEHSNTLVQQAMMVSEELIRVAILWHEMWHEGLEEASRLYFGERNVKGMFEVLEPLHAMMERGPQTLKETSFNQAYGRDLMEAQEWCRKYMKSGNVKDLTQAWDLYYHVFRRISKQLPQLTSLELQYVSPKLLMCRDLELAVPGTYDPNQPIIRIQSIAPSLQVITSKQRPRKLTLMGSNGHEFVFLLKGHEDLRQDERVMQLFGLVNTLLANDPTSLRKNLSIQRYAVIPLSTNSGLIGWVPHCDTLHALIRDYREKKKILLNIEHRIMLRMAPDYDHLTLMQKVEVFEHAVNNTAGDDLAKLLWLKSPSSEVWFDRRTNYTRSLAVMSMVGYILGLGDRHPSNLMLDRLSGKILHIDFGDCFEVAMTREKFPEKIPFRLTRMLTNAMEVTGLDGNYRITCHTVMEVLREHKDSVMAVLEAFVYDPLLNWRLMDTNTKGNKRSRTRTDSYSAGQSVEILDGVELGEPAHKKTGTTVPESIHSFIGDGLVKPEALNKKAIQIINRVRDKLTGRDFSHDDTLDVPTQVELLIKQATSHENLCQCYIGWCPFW

As a reminder, the pIC50 is −log10 of the IC50, conventionally taken in molar units. Consider `COc1cc(-c2cnc3ccc(-c4ccncc4)cn23)cnc1OC` [Example 12, 3-(5,6-Dimethoxy-3-pyridinyl)-6-(4-pyridinyl)imidazo[1,2-a]pyridine], for which the pIC50 at mTOR was 5.43; in assay [1], 5.66.

For `O=S(=O)(Nc1cc(-c2cnc3ccc(-c4cccnc4)cn23)cnc1Cl)c1ccc(F)cc1` [Example 8, N-(2-Chloro-5-(6-(3-pyridinyl)imidazo[1,2-a]pyridin-3-yl)-3-pyridinyl)-4-fluorobenzenesulfonamide], the pIC50 at mTOR is 7.49; in assay [1], 7.08.

Take `COc1cc(-c2cnc3ccccn23)cnc1OC` [Example 10, 3-(5,6-Dimethoxy-3-pyridinyl)imidazo[1,2-a]pyridine]: the pIC50 against mTOR is less than 4.30; in assay [1], less than 4.60.

Regarding `O=S(=O)(Nc1cc(-c2cnc3ccc(Br)cn23)cnc1Cl)c1ccc(F)cc1` [Example 6, N-(5-(6-Bromoimidazo[1,2-a]pyridin-3-yl)-2-chloro-3-pyridinyl)-4-fluorobenzenesulfonamide], the pIC50 against mTOR is 7.41; in assay [1], 6.68.

`CN(C)S(=O)(=O)Nc1cc(-c2cnc3cc(-c4ccncc4)ccn23)cnc1Cl` [Example 21, N′-(2-Chloro-5-(7-(4-pyridinyl)imidazo[1,2-a]pyridin-3-yl)-3-pyridinyl)-N,N-dimethylsulfamide]: the pIC50 was 6.59 against mTOR and 6.55 in assay [1].

On to `Cc1cc2ncc(-c3cnc(Cl)c(NS(=O)(=O)N(C)C)c3)n2cc1-c1ccncc1` [Example 23, N′-(2-Chloro-5-(7-methyl-6-(4-pyridinyl)imidazo[1,2-a]pyridin-3-yl)-3-pyridinyl)-N,N-dimethylsulfamide], for which the negative logarithm of the IC50 (pIC50) against mTOR was 7.74; in assay [1], 8.10.

On to `COc1cc(-c2cnc3ccc(Br)cn23)cnc1OC` [Example 11, 6-Bromo-3-(5,6-dimethoxy-3-pyridinyl)imidazo[1,2-a]pyridine], for which the pIC50 on mTOR was 5.66; in assay [1], 5.30.

On to `CN(C)S(=O)(=O)Nc1cc(-c2cnc3ccc(-c4ccncc4)cn23)cnc1Cl` [Example 18, N-(2-Chloro-5-(6-(pyridin-4-yl)imidazo[1,2-a]pyridin-3-yl)pyridin-3-yl)dimethylaminosulfonamide], for which the pIC50 on mTOR was 7.82; in assay [1], 8.15.

Regarding `O=S(=O)(Nc1cc(-c2cnc3ccc(N4CCOCC4)cn23)cnc1Cl)c1ccc(F)cc1` [Example 9, N-(2-Chloro-5-(6-(4-morpholinyl)imidazo[1,2-a]pyridin-3-yl)-3-pyridinyl)-4-fluorobenzenesulfonamide], the pIC50 against mTOR was 6.44; in assay [1] it was 7.12.

As to `CS(=O)(=O)Nc1cc(-c2cnc3cc(-c4cccnc4)ccn23)cnc1Cl` [Example 20, N-(2-Chloro-5-(7-(pyridin-3-yl)imidazo[1,2-a]pyridin-3-yl)pyridin-3-yl)methanesulfonamide], the pIC50 (against mTOR; in assay [1]) was 7.49 each time.

For the molecule `O=S(=O)(Nc1cc(-c2cnc3ccc(-c4ccncc4)cn23)cnc1Cl)c1ccc(F)cc1` [Example 7, N-(2-Chloro-5-(6-(4-pyridinyl)imidazo[1,2-a]pyridin-3-yl)-3-pyridinyl)-4-fluorobenzenesulfonamide], the pIC50 against mTOR was 7.44; in assay [1] it was 7.38.

Take `CN(C)S(=O)(=O)Nc1cc(-c2cnc3ccc(-c4ccnc(C(F)(F)F)c4)cn23)cnc1Cl` [Example 19, N-(2-Chloro-5-(6-(2-(trifluoromethyl)pyridin-4-yl)imidazo[1,2-a]pyridin-3-yl)pyridin-3-yl)dimethylaminosulfonamid]: the pIC50 against mTOR is 7.82; in assay [1], 8.05.

With `O=S(=O)(Nc1cc(-c2cnc3ccccn23)cnc1Cl)c1ccc(F)cc1` [Example 3, N-(2-Chloro-5-imidazo[1,2-a]pyridin-3-yl-3-pyridinyl)-4-fluorobenzenesulfonamide], the negative-log IC50 (pIC50) at mTOR was 6.81.

For `Cc1nc2ccc(Br)cn2c1-c1cnc(Cl)c(NS(=O)(=O)c2ccc(F)cc2)c1` [Example 5, N-(5-(6-Bromo-2-methylimidazo[1,2-a]pyridin-3-yl)-2-chloro-3-pyridinyl)-4-fluorobenzenesulfonamide], the pIC50 is 6.07 on mTOR and 5.91 in assay [1].

Regarding `COc1cc(-c2cnc3ccc(N4CCOC4=O)cn23)cnc1OC` [Example 13, 3-(3-(5,6-Dimethoxy-3-pyridinyl)imidazo[1,2-a]pyridin-6-yl)-1,3-oxazolidin-2-one], the pIC50 was 5.02 at mTOR and less than 4.60 in assay [1].

As to `O=S(=O)(Nc1cc(-c2cnc3ccc(Cl)nn23)cnc1Cl)c1ccc(F)cc1` [Example 25, N-(2-Chloro-5-(6-chloroimidazo[1,2-b]pyridazin-3-yl)pyridin-3-yl)-4-fluorobenzenesulfonamide], the pIC50 at mTOR is 6.99.

As to `CN(C)S(=O)(=O)Nc1cc(-c2cnc3cc(-c4cccnc4)ccn23)cnc1Cl` [Example 22, N′-(2-Chloro-5-(7-(3-pyridinyl)imidazo[1,2-a]pyridin-3-yl)-3-pyridinyl)-N,N-dimethylsulfamide], the pIC50 on mTOR is 6.80; in assay [1], 6.77.

Consider `COc1cc(-c2cnc3ccc(N4CCOCC4)cn23)cnc1OC` [Example 16, 3-(5,6-Dimethoxy-3-pyridinyl)-6-(4-morpholinyl)imidazo[1,2-a]pyridine], for which the values for the negative-log IC50 (pIC50) (against mTOR; in assay [1]) were 5.34 and 5.40, respectively.
